# Measurements as given in ChEMBL document CHEMBL1201862, “PubChem BioAssay data set” (2004).
# Active and inactive are the calls of the source.
# Legend:
# SUMO-activating enzyme = SUMO-activating enzyme (Homo sapiens, UniProt Q9UBT2); experiment: blockers of UBC9-mediated SUMO conjugation – biochemical, AlphaScreen, SUMOylation inhibitor project, confirmation (AID 2018); type: functional
# Prothrombin = Prothrombin (Homo sapiens, UniProt P00734); experiment: Thrombin 1536 HTS Dose Response Confirmation. [Related pubchem assays: 1046 (Thrombin 1536 HTS; hits were confirmed in this assay)]; type: functional
# Leucine aminopeptidase = molecular target: T1, Leucine aminopeptidase (Plasmodium falciparum 3D7, UniProt Q8IL11); experiment: P. falciparum M17LAP inhibitors, primary screen, biochemical, fluorogenic H-Leu-NHMec substrate, 1536-well (AID 1619); type: functional
# T1 sequence (Q8IL11 whole entry): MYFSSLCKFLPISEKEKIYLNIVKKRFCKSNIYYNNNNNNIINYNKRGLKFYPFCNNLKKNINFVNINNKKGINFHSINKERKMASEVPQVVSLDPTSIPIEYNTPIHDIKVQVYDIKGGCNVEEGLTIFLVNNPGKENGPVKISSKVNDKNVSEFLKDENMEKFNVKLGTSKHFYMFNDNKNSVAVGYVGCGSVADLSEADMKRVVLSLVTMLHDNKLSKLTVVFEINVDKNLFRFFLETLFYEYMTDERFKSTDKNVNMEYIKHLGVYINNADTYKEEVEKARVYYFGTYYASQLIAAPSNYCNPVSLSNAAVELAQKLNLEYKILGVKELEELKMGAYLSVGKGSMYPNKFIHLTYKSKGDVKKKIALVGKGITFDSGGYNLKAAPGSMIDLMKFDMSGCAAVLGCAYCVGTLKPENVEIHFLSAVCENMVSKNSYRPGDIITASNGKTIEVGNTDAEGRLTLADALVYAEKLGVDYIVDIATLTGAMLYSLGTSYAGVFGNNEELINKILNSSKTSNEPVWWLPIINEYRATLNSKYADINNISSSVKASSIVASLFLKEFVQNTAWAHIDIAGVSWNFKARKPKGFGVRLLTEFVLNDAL
# [1] = molecular target: DNA dC->dU-editing enzyme APOBEC-3G (Homo sapiens, UniProt Q9HC16); experiment: Dose Response confirmation of small molecule APOBEC3G DNA Deaminase Inhibitors via a fluorescence-based single-stranded DNA deaminase assay. [Related pubchem assays (depositor defined):AID493012, AID493028]; type: functional
# DNA dC->dU-editing enzyme APOBEC-3G, sequence (Q9HC16 whole entry): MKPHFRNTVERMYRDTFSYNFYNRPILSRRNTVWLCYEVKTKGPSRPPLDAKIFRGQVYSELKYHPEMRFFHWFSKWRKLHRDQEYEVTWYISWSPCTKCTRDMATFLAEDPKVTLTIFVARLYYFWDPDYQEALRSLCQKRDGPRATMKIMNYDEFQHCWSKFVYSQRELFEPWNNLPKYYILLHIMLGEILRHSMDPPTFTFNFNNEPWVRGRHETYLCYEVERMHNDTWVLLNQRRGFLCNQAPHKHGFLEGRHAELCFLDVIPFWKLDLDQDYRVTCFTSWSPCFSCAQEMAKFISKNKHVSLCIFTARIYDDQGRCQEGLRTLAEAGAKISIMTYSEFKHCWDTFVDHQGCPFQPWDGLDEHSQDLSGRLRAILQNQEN
# H4 = experiment: Luminescence Cell-Based Dose Response HTS to Identify Activators of 5'UTR Stem-Loop Driven Prion Protein mRNA Translation in H4 Neuroglioblastoma Cells. [Related pubchem assays: 1829 (Project Summary), 1814 (Primary HTS)]; type: functional; conditions: Homo sapiens
# [2] = Luminescence Cell-Based Dose Response HTS to Identify Activators of Luciferase Translation or Activity in H4 […] Cells. [Related pubchem assays: 1829 (Project Summary), 1814 (Primary HTS)]; type: functional
# [3] = Luminescence Cell-Based Dose Confirmation HTS to Identify Activators of 5'UTR Stem-Loop Driven Alpha-Synuclein mRNA Translation in H4 Neuroglioblastoma Cells. [Related pubchem assays: 1829 (Project Summary), 1814 (Primary HTS)]; type: functional
# [4] = molecular target: T2, Histone-lysine N-methyltransferase NSD2 (Homo sapiens, UniProt O96028); type: biochemical
# T2 sequence (O96028 whole entry): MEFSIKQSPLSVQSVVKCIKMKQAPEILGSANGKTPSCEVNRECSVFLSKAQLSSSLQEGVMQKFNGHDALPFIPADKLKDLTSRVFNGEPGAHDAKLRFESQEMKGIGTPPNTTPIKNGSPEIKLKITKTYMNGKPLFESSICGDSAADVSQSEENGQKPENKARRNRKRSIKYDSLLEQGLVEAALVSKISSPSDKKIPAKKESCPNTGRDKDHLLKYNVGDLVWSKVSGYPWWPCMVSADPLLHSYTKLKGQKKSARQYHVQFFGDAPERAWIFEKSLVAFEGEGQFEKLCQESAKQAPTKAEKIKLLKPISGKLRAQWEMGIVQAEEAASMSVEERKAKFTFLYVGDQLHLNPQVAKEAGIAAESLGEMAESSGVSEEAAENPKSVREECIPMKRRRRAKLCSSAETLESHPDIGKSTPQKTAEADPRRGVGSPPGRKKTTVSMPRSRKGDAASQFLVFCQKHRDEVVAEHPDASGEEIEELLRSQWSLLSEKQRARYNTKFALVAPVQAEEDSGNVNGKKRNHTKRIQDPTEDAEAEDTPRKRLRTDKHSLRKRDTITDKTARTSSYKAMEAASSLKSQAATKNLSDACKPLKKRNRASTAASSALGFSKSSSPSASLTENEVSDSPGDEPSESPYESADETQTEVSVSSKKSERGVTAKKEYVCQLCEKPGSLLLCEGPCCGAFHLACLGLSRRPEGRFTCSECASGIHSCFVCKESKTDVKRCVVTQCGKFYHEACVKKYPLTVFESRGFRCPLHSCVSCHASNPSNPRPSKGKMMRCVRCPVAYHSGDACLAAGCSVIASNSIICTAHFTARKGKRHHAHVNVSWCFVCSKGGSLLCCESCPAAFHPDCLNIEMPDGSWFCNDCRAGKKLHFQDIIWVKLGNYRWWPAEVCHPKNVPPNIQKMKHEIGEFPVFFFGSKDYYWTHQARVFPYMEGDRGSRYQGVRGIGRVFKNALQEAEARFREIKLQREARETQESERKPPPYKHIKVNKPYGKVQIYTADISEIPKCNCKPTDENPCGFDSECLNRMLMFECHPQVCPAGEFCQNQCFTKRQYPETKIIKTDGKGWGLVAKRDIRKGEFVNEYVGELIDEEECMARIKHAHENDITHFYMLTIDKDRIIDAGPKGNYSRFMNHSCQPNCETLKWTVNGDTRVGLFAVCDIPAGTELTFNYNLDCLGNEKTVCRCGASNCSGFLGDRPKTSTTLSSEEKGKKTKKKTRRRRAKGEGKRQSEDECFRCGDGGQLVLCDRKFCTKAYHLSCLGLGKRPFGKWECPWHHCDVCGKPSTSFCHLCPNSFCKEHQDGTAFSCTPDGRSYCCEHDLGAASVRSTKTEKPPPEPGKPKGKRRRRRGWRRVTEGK
# [5] = molecular target: T3, Corticotropin-releasing factor receptor 2/Corticotropin-releasing factor-binding protein (Homo sapiens, UniProt P24387+Q13324); experiment: Dose Response confirmation of uHTS hits for small molecule antagonists of the CRF-binding protein and CRF-R2 receptor complex.; type: functional; conditions: read-out: IC50_Mean
# T3 sequence (Q13324 whole entry): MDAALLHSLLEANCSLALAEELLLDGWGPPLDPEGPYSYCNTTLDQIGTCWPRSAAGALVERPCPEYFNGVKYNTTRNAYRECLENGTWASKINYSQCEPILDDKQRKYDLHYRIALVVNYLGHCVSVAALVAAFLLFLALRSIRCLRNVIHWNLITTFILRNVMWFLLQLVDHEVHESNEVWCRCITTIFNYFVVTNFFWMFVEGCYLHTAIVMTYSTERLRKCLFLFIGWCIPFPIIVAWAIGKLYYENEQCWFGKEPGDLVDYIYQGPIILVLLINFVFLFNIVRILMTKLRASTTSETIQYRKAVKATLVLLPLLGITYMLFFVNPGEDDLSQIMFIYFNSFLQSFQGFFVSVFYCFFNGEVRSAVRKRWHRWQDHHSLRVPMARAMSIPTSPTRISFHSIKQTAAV
# T3 sequence (P24387 whole entry): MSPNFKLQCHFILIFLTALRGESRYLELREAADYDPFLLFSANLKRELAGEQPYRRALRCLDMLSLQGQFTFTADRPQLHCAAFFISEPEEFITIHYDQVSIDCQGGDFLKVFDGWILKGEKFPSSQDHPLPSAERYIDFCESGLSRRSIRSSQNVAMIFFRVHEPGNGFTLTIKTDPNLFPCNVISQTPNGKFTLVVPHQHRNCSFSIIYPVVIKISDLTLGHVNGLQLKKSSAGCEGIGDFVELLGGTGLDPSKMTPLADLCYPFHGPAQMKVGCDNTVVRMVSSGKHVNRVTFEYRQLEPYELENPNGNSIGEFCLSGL
# [6] = molecular target: T3, Corticotropin-releasing factor receptor 2/Corticotropin-releasing factor-binding protein; experiment: activators of CRF receptor 2 with binding protein – uHTS hits, confirmation (AID 602473); type: functional; conditions: read-out: EC50_Mean
# [7] = HEK-293T cell viability reduction – luminescence, B-cell screen hits, cytotoxicity control for BCR NF-kB inhibitor project, dose response (AID 489021); type: functional, cell-based;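 note: HEK-293T cells carrying an NF-kB luciferase reporter; cells exposed to compound for about 14 hours before viability readout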
# HEK293 = experiment: EBV LMP1 TES2 canonical NF-kB signalling blockers – cell-based, HEK293, luciferase, cherry-pick, dose response (AID 588343); type: functional; conditions: Homo sapiens
# [8] = NIH3T3 cell viability loss – ATP luminescence, mouse fibroblasts, counter-screen, dose response (AID 2010); type: functional, cell-based;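 note: cells exposed to compound for about 90 hours before reading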
# [9] = Trypanosoma cruzi growth suppression in host cells – NIH3T3 host cells, beta-gal luminescence, confirmation (AID 2044); type: functional, cell-based;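 note: intracellular parasites grown in NIH/3T3 mouse fibroblasts as host cells; luminescent beta-galactosidase reporter signal from transgenic T. cruzi replicating inside host cells; inhibitors lower the luminescence signal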
# [10] = molecular target: Glucose-6-phosphate 1-dehydrogenase (Homo sapiens, UniProt P11413); experiment: inhibition of Homo sapiens G6PD, dose series – biochemical, fluorescence, selectivity assay for P. falciparum G6PD inhibitor project, dose response (AID 504792); type: functional
# Glucose-6-phosphate 1-dehydrogenase, sequence (P11413 whole entry): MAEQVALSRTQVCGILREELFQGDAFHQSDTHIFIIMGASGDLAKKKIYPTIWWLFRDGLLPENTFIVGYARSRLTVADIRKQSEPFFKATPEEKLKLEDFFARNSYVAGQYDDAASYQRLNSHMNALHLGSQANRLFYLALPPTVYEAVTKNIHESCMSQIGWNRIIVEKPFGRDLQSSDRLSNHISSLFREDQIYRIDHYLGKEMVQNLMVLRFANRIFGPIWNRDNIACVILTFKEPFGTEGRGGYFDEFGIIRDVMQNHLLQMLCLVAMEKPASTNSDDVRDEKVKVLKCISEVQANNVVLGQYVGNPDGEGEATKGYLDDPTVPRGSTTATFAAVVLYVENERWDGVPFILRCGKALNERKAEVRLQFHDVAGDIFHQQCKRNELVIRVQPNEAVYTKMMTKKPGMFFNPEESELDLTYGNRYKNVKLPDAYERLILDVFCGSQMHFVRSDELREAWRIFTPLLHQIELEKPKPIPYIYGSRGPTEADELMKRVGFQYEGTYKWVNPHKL
# [11] = reduction of Shn3 3'UTR-driven luciferase in osteoblasts – cell-based, Clone20 osteoblasts, firefly luciferase, cherry-picked, dose response (AID 624132); type: functional;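 note: firefly luciferase luminescence from reporter carrying the Shn3 3'UTR in osteoblasts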
# Fatty acid synthase [12] = molecular target: T4, Fatty acid synthase (Homo sapiens, UniProt P49327); experiment: inhibition of human FAS-TE enzyme activity – biochemical, kinetic fluorescence intensity, dose response (AID 624326); type: functional;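 note: rate of fluorescence rise from hydrolysis of a fluorogenic O-methyl fluorescein ester substrate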
# T4 sequence (P49327 whole entry): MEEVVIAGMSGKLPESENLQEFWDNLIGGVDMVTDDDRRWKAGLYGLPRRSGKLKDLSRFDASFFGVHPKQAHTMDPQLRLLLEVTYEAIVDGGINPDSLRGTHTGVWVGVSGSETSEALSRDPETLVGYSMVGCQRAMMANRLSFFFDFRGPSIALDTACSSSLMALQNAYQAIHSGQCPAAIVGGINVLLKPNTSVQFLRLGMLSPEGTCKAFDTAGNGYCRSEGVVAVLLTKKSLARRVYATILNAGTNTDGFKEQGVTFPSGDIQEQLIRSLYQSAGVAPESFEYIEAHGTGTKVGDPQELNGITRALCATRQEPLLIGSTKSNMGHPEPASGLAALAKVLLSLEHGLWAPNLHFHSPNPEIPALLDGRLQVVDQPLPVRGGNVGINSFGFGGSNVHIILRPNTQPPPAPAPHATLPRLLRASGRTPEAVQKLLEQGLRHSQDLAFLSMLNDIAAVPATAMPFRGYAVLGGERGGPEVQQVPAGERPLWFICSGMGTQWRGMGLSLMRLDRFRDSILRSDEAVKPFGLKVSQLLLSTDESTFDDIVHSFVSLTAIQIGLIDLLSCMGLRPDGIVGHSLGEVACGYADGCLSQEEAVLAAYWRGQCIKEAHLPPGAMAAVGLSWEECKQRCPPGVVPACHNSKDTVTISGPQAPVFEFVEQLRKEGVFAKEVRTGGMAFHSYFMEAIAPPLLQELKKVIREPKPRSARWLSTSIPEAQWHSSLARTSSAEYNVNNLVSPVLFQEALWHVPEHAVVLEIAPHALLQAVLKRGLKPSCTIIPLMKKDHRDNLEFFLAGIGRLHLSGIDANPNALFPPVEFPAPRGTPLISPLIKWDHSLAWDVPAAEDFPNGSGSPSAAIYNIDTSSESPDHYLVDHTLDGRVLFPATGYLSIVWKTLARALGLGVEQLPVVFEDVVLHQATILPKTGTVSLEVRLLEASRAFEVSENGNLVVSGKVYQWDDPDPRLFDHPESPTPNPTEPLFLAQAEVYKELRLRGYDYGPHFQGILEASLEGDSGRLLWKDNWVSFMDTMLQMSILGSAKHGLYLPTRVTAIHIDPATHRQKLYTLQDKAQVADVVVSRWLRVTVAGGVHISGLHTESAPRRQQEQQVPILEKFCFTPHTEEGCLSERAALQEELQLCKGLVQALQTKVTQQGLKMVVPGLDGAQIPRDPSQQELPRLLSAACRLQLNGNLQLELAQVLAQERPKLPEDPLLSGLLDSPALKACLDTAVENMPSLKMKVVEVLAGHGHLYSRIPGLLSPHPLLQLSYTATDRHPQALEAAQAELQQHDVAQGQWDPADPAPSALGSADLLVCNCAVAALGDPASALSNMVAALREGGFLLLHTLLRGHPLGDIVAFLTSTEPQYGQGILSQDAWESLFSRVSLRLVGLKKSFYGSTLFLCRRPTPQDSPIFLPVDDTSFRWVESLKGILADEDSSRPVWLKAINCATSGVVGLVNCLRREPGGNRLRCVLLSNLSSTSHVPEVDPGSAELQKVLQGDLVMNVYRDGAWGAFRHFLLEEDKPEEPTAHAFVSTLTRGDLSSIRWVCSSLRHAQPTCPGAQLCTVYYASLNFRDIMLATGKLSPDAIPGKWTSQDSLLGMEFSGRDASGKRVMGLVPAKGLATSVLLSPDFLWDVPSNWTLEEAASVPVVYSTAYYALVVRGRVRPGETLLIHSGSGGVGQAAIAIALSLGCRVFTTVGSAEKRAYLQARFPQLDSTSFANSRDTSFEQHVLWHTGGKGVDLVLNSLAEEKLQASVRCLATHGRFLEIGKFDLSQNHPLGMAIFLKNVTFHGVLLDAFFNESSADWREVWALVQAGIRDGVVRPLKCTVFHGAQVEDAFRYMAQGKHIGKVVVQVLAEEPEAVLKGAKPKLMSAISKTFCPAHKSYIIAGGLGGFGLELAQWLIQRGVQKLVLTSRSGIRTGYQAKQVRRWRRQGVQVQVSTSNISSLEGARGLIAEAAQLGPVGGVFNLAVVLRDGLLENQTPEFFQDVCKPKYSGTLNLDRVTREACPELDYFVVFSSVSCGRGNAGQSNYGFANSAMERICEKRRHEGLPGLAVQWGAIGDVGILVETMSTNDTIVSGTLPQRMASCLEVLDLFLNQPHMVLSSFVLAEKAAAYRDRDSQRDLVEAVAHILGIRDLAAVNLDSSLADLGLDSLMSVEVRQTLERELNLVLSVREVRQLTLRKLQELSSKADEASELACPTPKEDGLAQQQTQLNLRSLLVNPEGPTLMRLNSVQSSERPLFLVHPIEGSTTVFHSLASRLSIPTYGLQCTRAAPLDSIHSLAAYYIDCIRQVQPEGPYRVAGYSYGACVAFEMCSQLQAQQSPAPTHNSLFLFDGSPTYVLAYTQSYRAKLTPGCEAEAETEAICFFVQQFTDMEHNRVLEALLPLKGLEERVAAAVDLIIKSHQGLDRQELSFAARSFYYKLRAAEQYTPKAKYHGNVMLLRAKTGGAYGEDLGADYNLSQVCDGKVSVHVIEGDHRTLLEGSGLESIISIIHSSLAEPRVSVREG
# Fatty acid synthase [13] = molecular target: T4, Fatty acid synthase; experiment: inhibition of human FAS-TE enzyme activity – biochemical, endpoint fluorescence intensity, uHTS hits, dose response (AID 624327); type: functional;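 note: fluorescence from hydrolysis of an O-methyl fluorescein acyl ester substrate by the enzyme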
# [14] = loss of viability in HepG2 cells – cell-based, CellTiter-Glo, cherry-picked, cytotoxicity control for Shn3 inhibitor project, dose response (AID 624134); type: functional
# [15] = non-specific 3'UTR reporter inhibition in Clone20-Shn3RL – cell-based, Renilla luciferase, cherry-picked, counter-screen for Shn3 inhibitor project, dose response (AID 624133); type: functional
# Cytochrome P450 2C9 = Cytochrome P450 2C9 (Homo sapiens, UniProt P11712)
# Cytochrome P450 2C9, sequence (P11712 whole entry): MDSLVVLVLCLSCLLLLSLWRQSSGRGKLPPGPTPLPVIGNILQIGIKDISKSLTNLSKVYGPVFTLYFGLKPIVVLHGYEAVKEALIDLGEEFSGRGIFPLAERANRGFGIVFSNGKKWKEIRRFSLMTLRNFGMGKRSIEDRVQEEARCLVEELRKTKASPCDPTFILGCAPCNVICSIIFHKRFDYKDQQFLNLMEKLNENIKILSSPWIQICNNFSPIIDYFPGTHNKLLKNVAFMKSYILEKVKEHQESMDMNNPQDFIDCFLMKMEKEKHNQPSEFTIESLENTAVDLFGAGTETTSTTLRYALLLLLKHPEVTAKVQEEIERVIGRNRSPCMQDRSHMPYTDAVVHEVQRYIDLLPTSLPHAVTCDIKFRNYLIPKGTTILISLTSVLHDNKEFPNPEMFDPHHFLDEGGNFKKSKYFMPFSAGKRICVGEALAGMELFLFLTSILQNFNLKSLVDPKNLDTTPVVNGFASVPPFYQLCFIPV
# [16] = viability of uninfected HEp-2 cells – cell-based, HTS, cytotoxicity control for RSV inhibitor project, dose response (AID 2410); type: functional; conditions: human respiratory syncytial virus
# SUMO-activating enzyme, sequence (Q9UBE0 whole entry): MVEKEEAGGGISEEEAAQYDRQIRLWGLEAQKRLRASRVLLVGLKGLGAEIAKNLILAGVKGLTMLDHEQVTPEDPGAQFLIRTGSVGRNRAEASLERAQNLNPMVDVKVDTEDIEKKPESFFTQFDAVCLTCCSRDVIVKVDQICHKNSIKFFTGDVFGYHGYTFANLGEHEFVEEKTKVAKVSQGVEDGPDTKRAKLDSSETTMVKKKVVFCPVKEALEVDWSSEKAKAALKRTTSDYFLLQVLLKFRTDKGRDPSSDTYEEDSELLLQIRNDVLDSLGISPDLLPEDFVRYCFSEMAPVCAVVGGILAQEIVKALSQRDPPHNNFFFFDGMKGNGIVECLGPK
# SUMO-activating enzyme, sequence (Q9UBT2 whole entry): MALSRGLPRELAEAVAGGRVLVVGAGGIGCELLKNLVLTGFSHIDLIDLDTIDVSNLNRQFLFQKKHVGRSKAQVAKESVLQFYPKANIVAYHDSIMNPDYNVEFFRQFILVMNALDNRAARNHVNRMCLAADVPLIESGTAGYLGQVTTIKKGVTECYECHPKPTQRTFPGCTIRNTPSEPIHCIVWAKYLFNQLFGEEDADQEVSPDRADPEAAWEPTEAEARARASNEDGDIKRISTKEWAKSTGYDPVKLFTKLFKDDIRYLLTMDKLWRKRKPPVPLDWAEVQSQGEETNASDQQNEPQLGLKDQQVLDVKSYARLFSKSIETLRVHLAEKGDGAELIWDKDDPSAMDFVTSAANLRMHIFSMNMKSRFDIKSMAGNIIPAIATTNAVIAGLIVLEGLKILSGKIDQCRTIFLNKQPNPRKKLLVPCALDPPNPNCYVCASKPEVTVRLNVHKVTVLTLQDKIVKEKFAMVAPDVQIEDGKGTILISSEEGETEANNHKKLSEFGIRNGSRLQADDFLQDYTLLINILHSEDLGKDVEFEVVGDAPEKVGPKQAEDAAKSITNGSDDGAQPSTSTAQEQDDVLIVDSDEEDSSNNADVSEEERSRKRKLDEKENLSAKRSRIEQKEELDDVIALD
structure (smiles),measurement,setting,value
Cc1ccc2c(SCC(=O)NCc3ccco3)nc(-c3ccc(F)cc3)nc2c1,IC50,SUMO-activating enzyme,50.1 µM (active)
CC(C(=O)NCc1ccccn1)N1C(=O)c2ccccc2C1=O (stereo not drawn),IC50,Prothrombin,> 50 µM (not active)
O=C(COC(=O)CCc1ccccc1)Nc1ncc(Cl)cc1Cl,IC50,Prothrombin,8.03 µM (active)
Cc1sc(NC(=O)C2CCCCC2C(=O)O)c(C(N)=O)c1-c1ccccc1 (stereo not drawn),IC50,Leucine aminopeptidase,11 µM (active)
O=C(NC1CCCCCC1)c1ccc[nH]c1=S,IC50,[1],21.9 µM (active)
CCOC(=O)c1cnn(-c2ncnc3sc4c(c23)CCC4)c1N,EC50,H4,11.9 µM (active)
same,EC50,[2],29.1 µM (active)
same,EC50,[3],13.8 µM (active)
same,IC50,Prothrombin,> 50 µM (not active)
CN(C)CCNc1ncnc2oc(-c3ccccc3)c(-c3ccccc3)c12,AC50,[4],> 20 µM (inactive)
COc1ccccc1NC(=O)c1sc2nc(-c3ccco3)ccc2c1N,IC50,SUMO-activating enzyme,45.2 µM (active)
COc1ccnc(CSC(=N)Nc2ccc(F)cc2)c1,IC50,[5],> 47.1 µM (inactive)
same,EC50,[6],32 µM (active)
CCOC(=O)c1c(N)sc(C(=O)N2CCCCC2)c1C,IC50,[5],> 47.1 µM (inactive)
same,EC50,[6],> 53 µM (inactive)
Cc1ccc(/C=C2\SC(=S)N(CCCC(=O)NC3CCCC3)C2=O)cc1,IC50,[7],> 80 µM (inactive)
C=CCNC(=O)C(C#N)c1nc2ccccc2nc1N1CCN(Cc2ccccc2)CC1 (stereo not drawn),IC50,Prothrombin,> 50 µM (inconclusive)
CC(C)(C)c1ccc(C(=O)Nc2nnc(SCC(=O)NCC3CCCO3)s2)cc1 (stereo not drawn),AC50,HEK293,2.11 µM (active)
CCCc1cc(=O)c2c(O)ccc(OC)c2o1,AC50,HEK293,> 350 µM (inactive)
COc1ccc(CNc2nc(-c3cccnc3)nn2C(=O)CC(C)C)cc1,IC50,Prothrombin,0.336 µM (active)
CC/C(NCCCN(CC)CC)=C1/C(=O)NC(=O)N(C2CCCCC2)C1=O,AC50,[4],> 20 µM (inactive)
same,EC50,[8],> 60 µM (not active)
same,EC50,[9],0.171 µM (active)
Cc1c(CC(=O)NCCCC(=O)O)c(=O)oc2cc3c(cc12)CCC(C)(C)O3,IC50,[7],> 80 µM (inactive)
Cc1c(O)ccc(-c2[nH]ncc2-c2nc3ccccc3s2)c1O,IC50,Leucine aminopeptidase,6.97 µM (active)
C=CCSc1nnc(NC(=O)c2ccc(Cl)nc2)s1,IC50,[10],> 80 µM (inactive)
Cn1c(=O)n(C)c2cc(NS(=O)(=O)c3ccccc3)ccc21,IC50,[7],> 80 µM (inactive)
Cc1cc(S(=O)(=O)c2ccc(Cl)cc2)nc(S(=O)(=O)c2ccc(Cl)cc2)c1C#N,AC50,[11],2.83 µM (active)
same,IC50,Fatty acid synthase [12],10.4 µM (active)
same,AC50,HEK293,9.23 µM (active)
same,IC50,Fatty acid synthase [13],7.57 µM (active)
same,AC50,[14],25.9 µM (active)
same,AC50,[15],21.2 µM (active)
CCn1c2ccccc2c2cc(/C=N/n3cnnc3S)ccc21,IC50,[10],> 80 µM (inactive)
same,AC50,HEK293,10.7 µM (active)
same,AC50,Cytochrome P450 2C9,31.6 µM (inconclusive)
same,CC50,[16],25.1 µM (active)
O=C(O)c1cccc(NC(=S)N/N=C/c2c[nH]c3ccccc23)c1,IC50,Leucine aminopeptidase,17.6 µM (active)
